Test results published in paper PMC9821961, “Ring-Modified Histidine-Containing Cationic Short Peptides Exhibit Anticryptococcal Activity by Cellular Disruption” (Molecules, 2022).
Values after ≈ are worked out from the molar mass of the structure shown.

What was measured:
S. pyogens = assay: microbe, parasite or virus in culture; assay type: cell-based, Streptococcus pyogenes; conditions: 48 h
E. coli = assay: microbe, parasite or virus in culture; assay type: cell-based, Escherichia coli; conditions: 48 h
Source text: Microbial strains: Microbial strains were procured from National Culture Collection of Pathogenic Fungi (NCCPF) at the Postgraduate Institute of Medical Education & Research (PGIMER), Chandigarh and Microbial Type Culture Collection and Gene bank (MTCC) at the Institute of Microbial Technology (IMTECH), Chandigarh, India. Peptides were screened against five different strains of fungi: viz. Candida albicans (NCCPF400034), Candida glabrata (MTCC 3019), Candida parapsilosis (NCCPF 440002), Candida krusei (NCCPF 440002) and Cryptococcus neoformans (NCCPF250316), and five strains of bacteria: viz. Escherichia coli (MTCC 2961), Staphylococcus aureus (MTCC 3160), Enterococcus faecalis (MTCC 439), Streptococcus pyogenes (MTCC 442) and Pseudomonas aeruginosa (MTCC 3542).
Growth media: Antifungal susceptibility testing was carried out using standard broth microdilution assays as per the Clinical and Laboratory Standards Institute (CLSI) guidelines for fungi. RPMI 1640 (Sigma), yeast extract, peptone and dextrose (YPED, Himedia) were used as the incubation broths. The cells were diluted to a cell density of 10^3 colony forming unit (CFU/mL) and incubated at 30 °C for 48 h. Furthermore, Muller Hinton (Himedia) media was utilized for bacterial strains and antibacterial activity was evaluated per CLSI guidelines for bacteria. […] Amphotericin B (Himedia, India) and rifampicin (Himedia, India) were used as standard drugs for the evaluation of activity against all the fungal and bacterial strains, respectively.
The stock solutions of peptides (2 mg/mL) were prepared in DMSO. Specific amounts of peptide from stock solution were added to a 96-well microtiter plate containing 100 μL of growth media and then serially diluted two-fold. A further 100 μL of growth media containing microbial cells were added to each well and incubated at 30–37 °C for 24–48 h. The optical density (OD) was measured at 600 nm using a BioStack Ready (BioTek Instruments, Winooski, VT, USA) microplate reader to analyze microbial growth inhibition, and IC50 and MIC values were calculated. To visualize the growth and inhibition pattern, a solution of 3-(4,5-dimethylthiazol-2-yl)-2,5-diphenyltetrazolium bromide (MTT) in water was added to the plate and incubated for 2–3 h. MTT reacts with the mitochondrial dehydrogenases, which are present only in a viable cell, to give blue colored formazan crystals. Therefore, a darker color indicates a high number of viable cells; however, non-viable cells appear pale or colorless.

C. neoformans cells [1] = assay: Cell death pattern analysis by flow cytometry (Annexin V-FITC/PI); assay type: cell-based, Cryptococcus neoformans; conditions: treated at MIC, 12 h; PI + annexin V-FITC
Source text: Apoptosis includes a series of events occurring inside the cell, causing changes in plasma membrane, genetic material and various internal proteins, therefore leading to programmed cell death. One of the early markers of apoptosis is the translocation of a membrane phospholipid, phosphatidylserine, from the inner to the outer leaflet of the plasma membrane without altering the integrity of the plasma membrane. Annexin V-FITC interacts with the externalized phosphatidylserine, therefore showing the cell change towards apoptosis which can be analyzed using flow cytometry. The four quadrants in flow cytometry indicate different stages of the cells. The percentage depicts the population of the cells in a specific stage. Q1 corresponds to the percentage of cells undergoing necrosis, Q2 depicts the early apoptotic stage of the cells whereas Q4 corresponds to the cells in late-stage apoptosis and Q3 depicts the cells in the native state.
The treated cells along with a batch of untreated cells were centrifuged at 2000× g for 10 min at 4 °C and suspended in cold phosphate-buffered saline (PBS), followed by 2–3 washings with PBS. The harvested treated and untreated cells were then incubated with zymolyase for 1 h at ambient temperature to obtain cell protoplasm. The staining of obtained protoplasm was done using an Annexin V-FITC detection kit (Sigma-Aldrich, Saint Louis, DE, USA). The protoplasm of untreated cells was divided into 4 tubes (2 mL) and into 3 tubes a different staining agent was added while one was kept unstained. […] Furthermore, two more samples were prepared where protoplasm of 10d- and 10o-treated cells were stained with both PI and annexin V-FITC. All 6 samples were then analyzed by using an FACS Calibur (Becton-Dickinson, San Jose, CA, USA) at excitation of 488 nm (for FITC) and 560 nm (for PI) band filter. Approximately 10,000 cells were used for counting.

C. neoformans cells [2] = assay: Internal cell morphology analysis by TEM (HRTEM, STEM); assay type: cell-based, Cryptococcus neoformans; conditions: at MIC, 12 h
Experimental: The samples were prepared in a similar manner to as mentioned in the procedure for SEM sample preparation, up until the dehydration of cells with increasing gradients of ethanol. The dehydrated samples were then embedded in resin which was prepared from an epoxy embedding medium kit (Sigma, 45359-1EA-F). Increasing gradients (10%, 20%, 30%, 50%, 70% and 90%) of resin were added to the samples followed by incubation for 1–2 h at room temperature after addition of each gradient. Undiluted resin (100%) was added to the sample and incubated for 24 h at 70 °C. Semi-thin and ultrathin sections were cut with an ultramicrotome (Ultramicotome Lecia EM UC6). The sections of samples were placed on a 3.05 mm diameter and 200 mesh copper grid and stained with uranyl acetate or lead acetate, before observation under the HRTEM (FEI Technai G2 F20, Eindhoven, The Netherlands) and analysis at 120 KV.

in vitro = conditions: human, HeLa cells
Experimental: The cells (50,000 cells/well) were seeded to the wells of the plate in Dulbecco’s Modified Eagle Medium (DMEM) supplemented with 10% fetal bovine serum at 37 °C overnight and incubated for 24 h to achieve confluency. Peptides at different concentrations of 50, 25, 12.5, 6.25, 3.12, 1.56 and 0.78 μg/mL were added to the cells in separate wells and incubated at 37 °C for 18 h. A further 20 µL MTT solution (5 mg/mL stock conc. in PBS) was added and the plate was incubated for another 3–4 h. To detect the viable cells that react with MTT to make formazan crystals, 120 μL of supernatant was removed and 100 μL DMSO was added to dissolve the crystals. Untreated cells and DMSO (10%) were used as negative and positive controls, respectively [37]. The percent viability of cells was calculated using equation:(2) % Cell viability=Av. Absorbance of treated cells/Av. Absorbance of control cells×100

Structure (SMILES) | IC50 (S. pyogens) [µg/mL] | MIC (S. pyogens) [µg/mL] | IC50 (E. coli) [µg/mL] | MIC (E. coli) [µg/mL] | Cell population in Q1 (necrosis) (C. neoformans cells [1]) [%] | Cell population in Q2 (early apoptotic stage) (C. neoformans cells [1]) [%] | Cell population in Q3 (native state) (C. neoformans cells [1]) [%] | Cell population in Q4 (late-stage apoptosis) (C. neoformans cells [1]) [%] | Internal morphology of treated cells (HRTEM) (C. neoformans cells [2]) | Morphology of treated cells (STEM) (C. neoformans cells [2]) | CC50 at 18 h (in vitro) [µg/mL]
COC(=O)[C@H](Cc1ncn(Cc2cc(C(C)(C)C)cc(C(C)(C)C)c2)c1I)NC(=O)[C@@H](N)Cc1c[nH]c2ccccc12 [10d, Trp-His[1-(3,5-di-tert-butylbenzyl)-5-iodo]-OMe] | >35.2 | >64.0 | 17.6 (≈ 25.7 µM) | 32.0 (≈ 46.8 µM) | 1.7 | 1.3 | 44.8 | 52.2 | complete lysis of the cell membrane | highly shrunken cells with irregular cell membranes | > 100
COC(=O)[C@H](Cc1ncn(Cc2ccccc2I)c1I)NC(=O)[C@@H](N)Cc1c[nH]c2ccccc12 [10o, Trp-His[1-(2-iodobenzyl)-5-iodo]-OMe] | >35.2 | >64.0 | >35.2 | >64.0 | 2 | 1 | 48.9 | 48.1 | cell membrane was completely damaged | highly deformed and shrunken | > 100
